pIC50: −log10 of the molar value.
Target: T1, human GPR17 receptor (Homo sapiens, UniProt Q13304)
T1 construct: host or cells: HEK-293
Assay: Calcium mobilization functional assay (Fluo-8, FLIPR TETRA) in HEK-293 hGPR17 (Gα-q assay)
Assay type: cell-based
Settings: antagonism of MDL29,951 (~EC80) induced Ca2+ signal; cell line (HEK-293 hGPR17 or HEK-293 Suchi5 hGPR17) not given
Summary of the method: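 Fluo-8-loaded HEK-293 hGPR17 cells (60 min dye loading, room temperature) were preincubated with compound for twenty minutes, then challenged with agonist MDL29,951 at ~EC80, 500 nM. Intracellular calcium release via Gα-q was recorded as FLIPR fluorescence for a further 2 minutes; compounds tested in duplicate.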

T1 sequence (Q13304 whole entry): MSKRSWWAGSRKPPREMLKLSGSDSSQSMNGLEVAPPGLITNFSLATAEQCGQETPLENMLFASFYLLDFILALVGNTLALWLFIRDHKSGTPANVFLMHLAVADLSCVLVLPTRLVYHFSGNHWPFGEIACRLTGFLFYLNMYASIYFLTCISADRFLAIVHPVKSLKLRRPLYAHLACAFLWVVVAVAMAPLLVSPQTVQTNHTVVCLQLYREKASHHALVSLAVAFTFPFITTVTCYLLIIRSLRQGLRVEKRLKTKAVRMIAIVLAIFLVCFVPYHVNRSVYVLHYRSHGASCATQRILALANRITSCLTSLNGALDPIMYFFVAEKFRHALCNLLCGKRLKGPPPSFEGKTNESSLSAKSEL

| pIC50 | Structure (SMILES) |
| --- | --- |
| 5.30 to 6.30 | COc1cc(F)c(NS(=O)(=O)c2c[nH]c(-c3ccccn3)c2)cc1F [Cpd 183, N-(2,5-difluoro-4-methoxy-phenyl)-5-(2-pyridyl)-1H-pyrrole-3-sulfonamide] |
| 5.30 to 6.30 | N#Cc1ccc(NS(=O)(=O)c2c[nH]cc2Cc2cccnc2)c(F)c1 [Cpd 184, N-(4-cyano-2-fluoro-phenyl)-4-(3-pyridylmethyl)-1H-pyrrole-3-sulfonamide] |
| 5.30 to 6.30 | C#Cc1cc(F)c(NS(=O)(=O)c2c[nH]c(-c3ccccn3)c2)cc1F [Cpd 185, N-(4-ethynyl-2,5-difluoro-phenyl)-5-(2-pyridyl)-1H-pyrrole-3-sulfonamide] |
| 5.30 to 6.30 | O=S(=O)(Nc1ccc(C(F)(F)F)nc1F)c1c[nH]c(-c2ccccc2)c1 [Cpd 186, N-[2-fluoro-6-(trifluoromethyl)-3-pyridyl]-5-phenyl-1H-pyrrole-3-sulfonamide] |
| 5.30 to 6.30 | O=S(=O)(Nc1cc2cccnc2cc1F)c1c[nH]c(-c2ccccc2)c1 [Cpd 187, N-(7-fluoro-6-quinolyl)-5-phenyl-1H-pyrrole-3-sulfonamide] |
| 5.30 to 6.30 | O=S(=O)(Nc1ccc(OC(F)F)nc1F)c1c[nH]c(-c2ccccc2)c1 [Cpd 188, N-[6-(difluoromethoxy)-2-fluoro-3-pyridyl]-5-phenyl-1H-pyrrole-3-sulfonamide] |
| 5.30 to 6.30 | O=S(=O)(Nc1cc(F)c(C(F)(F)F)cc1F)c1c[nH]c(-c2ccc(F)cn2)c1 [Cpd 189, N-[2,5-difluoro-4-(trifluoromethyl)phenyl]-5-(5-fluoro-2-pyridyl)-1H-pyrrole-3-sulfonamide] |
| 5.30 to 6.30 | O=S(=O)(Nc1ccc(C(F)(F)F)c(F)c1)c1c[nH]c(-c2ccccn2)c1 [Cpd 190, N-[3-fluoro-4-(trifluoromethyl)phenyl]-5-(2-pyridyl)-1H-pyrrole-3-sulfonamide] |
| > 6.30 | COc1ncccc1-c1cc(S(=O)(=O)Nc2cc(F)c(C(F)(F)F)cc2F)c[nH]1 [Cpd 191, N-[2,5-difluoro-4-(trifluoromethyl)phenyl]-5-(2-methoxy-3-pyridyl)-1H-pyrrole-3-sulfonamide] |
| 4.30 to 5.30 | O=S(=O)(Nc1ncc(Cl)cc1F)c1c[nH]cc1Cc1ccccc1 [Cpd 192, 4-benzyl-N-(5-chloro-3-fluoro-2-pyridyl)-1H-pyrrole-3-sulfonamide] |
| 5.30 to 6.30 | O=S(=O)(Nc1cc(F)c(Br)cc1F)c1c[nH]cc1Cc1ccccc1 [Cpd 193, 4-benzyl-N-(4-bromo-2,5-difluoro-phenyl)-1H-pyrrole-3-sulfonamide] |
| 5.30 to 6.30 | N#Cc1ccc(NS(=O)(=O)c2c[nH]cc2Cc2ccccc2Cl)c(F)c1 [Cpd 194, 4-[(2-chlorophenyl)methyl]-N-(4-cyano-2-fluoro-phenyl)-1H-pyrrole-3-sulfonamide] |
| 5.30 to 6.30 | N#Cc1ccc(NS(=O)(=O)c2c[nH]cc2C(=O)c2ccccc2)c(F)c1 [Cpd 195, 4-benzoyl-N-(4-cyano-2-fluoro-phenyl)-1H-pyrrole-3-sulfonamide] |
| 4.30 to 5.30 | COc1ccc(F)c(NS(=O)(=O)c2c[nH]c(-c3ccccn3)c2)c1 [Cpd 196, N-(2-fluoro-5-methoxy-phenyl)-5-(2-pyridyl)-1H-pyrrole-3-sulfonamide] |
| 4.30 to 5.30 | O=S(=O)(Nc1cc(F)c(C(F)(F)F)cc1F)c1c[nH]c(-c2ccc(Cl)cn2)c1 [Cpd 197, 5-(5-chloro-2-pyridyl)-N-[2,5-difluoro-4-(trifluoromethyl)phenyl]-1H-pyrrole-3-sulfonamide] |
| 5.30 to 6.30 | COc1cc(C(F)(F)F)cnc1NS(=O)(=O)c1c[nH]c(-c2ccccn2)c1 [Cpd 198, N-[3-methoxy-5-(trifluoromethyl)-2-pyridyl]-5-(2-pyridyl)-1H-pyrrole-3-sulfonamide] |
| 4.30 to 5.30 | O=S(=O)(Nc1cc(C(F)(F)F)ncc1F)c1c[nH]c(-c2ccccc2)c1 [Cpd 199, N-[5-fluoro-2-(trifluoromethyl)-4-pyridyl]-5-phenyl-1H-pyrrole-3-sulfonamide] |
| 4.30 to 5.30 | CC(=O)c1ccc(NS(=O)(=O)c2c[nH]c(-c3ccccn3)c2)c(F)c1 [Cpd 200, N-(4-acetyl-2-fluoro-phenyl)-5-(2-pyridyl)-1H-pyrrole-3-sulfonamide] |
| 4.30 to 5.30 | N#CCc1cnc(NS(=O)(=O)c2c[nH]c(-c3ccccn3)c2)c(F)c1 [Cpd 201, N-[5-(cyanomethyl)-3-fluoro-2-pyridyl]-5-(2-pyridyl)-1H-pyrrole-3-sulfonamide] |
| > 6.30 | O=S(=O)(Nc1cc(F)c(Cl)cc1F)c1c[nH]c(-c2ccccn2)c1 [Cpd 202, N-(4-chloro-2,5-difluoro-phenyl)-5-(2-pyridyl)-1H-pyrrole-3-sulfonamide] |
| 5.30 to 6.30 | CCOC(=O)c1ccc(NS(=O)(=O)c2c[nH]c(-c3ccccn3)c2)c(F)c1 [Cpd 203] |
| > 6.30 | O=S(=O)(Nc1cc(F)c(C(F)(F)F)cc1F)c1c[nH]c(-c2ncccc2Cl)c1 [Cpd 204, 5-(3-chloro-2-pyridyl)-N-[2,5-difluoro-4-(trifluoromethyl)phenyl]-1H-pyrrole-3-sulfonamide] |

| pIC50 | Structure (SMILES) |
| --- | --- |
| > 6.30 | O=S(=O)(Nc1cc(F)c(OC(F)F)cc1F)c1c[nH]c(-c2ccccn2)c1 [Cpd 205, N-[4-(difluoromethoxy)-2,5-difluoro-phenyl]-5-(2-pyridyl)-1H-pyrrole-3-sulfonamide] |
| > 6.30 | N#Cc1ccc(NS(=O)(=O)c2c[nH]cc2Cc2cccc(Cl)c2)c(F)c1 [Cpd 206, 4-[(3-chlorophenyl)methyl]-N-(4-cyano-2-fluoro-phenyl)-1H-pyrrole-3-sulfonamide] |
| 4.30 to 5.30 | N#Cc1ccc(NS(=O)(=O)c2c[nH]cc2C(O)c2ccccc2)c(F)c1 (stereo not shown) [Cpd 207, N-(4-cyano-2-fluoro-phenyl)-4-[hydroxy(phenyl)methyl]-1H-pyrrole-3-sulfonamide] |
| 5.30 to 6.30 | N#Cc1ccc(NS(=O)(=O)c2c[nH]cc2Cc2ccc(Cl)cc2)c(F)c1 [Cpd 208, 4-[(4-chlorophenyl)methyl]-N-(4-cyano-2-fluoro-phenyl)-1H-pyrrole-3-sulfonamide] |
| 4.30 to 5.30 | COc1ccc(Cc2c[nH]cc2S(=O)(=O)Nc2ccc(C#N)cc2F)cc1 [Cpd 209, N-(4-cyano-2-fluoro-phenyl)-4-[(4-methoxyphenyl)methyl]-1H-pyrrole-3-sulfonamide] |
| > 6.30 | COc1cccc(Cc2c[nH]cc2S(=O)(=O)Nc2ccc(C#N)cc2F)c1 [Cpd 210, N-(4-cyano-2-fluoro-phenyl)-4-[(3-methoxyphenyl)methyl]-1H-pyrrole-3-sulfonamide] |
| 5.30 to 6.30 | COc1ccccc1Cc1c[nH]cc1S(=O)(=O)Nc1ccc(C#N)cc1F [Cpd 211, N-(4-cyano-2-fluoro-phenyl)-4-[(2-methoxyphenyl)methyl]-1H-pyrrole-3-sulfonamide] |
| 5.30 to 6.30 | O=S(=O)(Nc1cc(F)c(C(F)(F)F)cc1F)c1c[nH]c(-c2cc(Cl)ccn2)c1 [Cpd 214, 5-(4-chloro-2-pyridyl)-N-[2,5-difluoro-4-(trifluoromethyl)phenyl]-1H-pyrrole-3-sulfonamide] |
| > 6.30 | O=S(=O)(Nc1cc(F)c(C(F)(F)F)cc1F)c1c[nH]c(-c2cccc(Cl)n2)c1 [Cpd 215, 5-(6-chloro-2-pyridyl)-N-[2,5-difluoro-4-(trifluoromethyl)phenyl]-1H-pyrrole-3-sulfonamide] |
| 5.30 to 6.30 | C#Cc1cnc(NS(=O)(=O)c2c[nH]c(-c3ccccc3)c2)c(F)c1 [Cpd 216, N-(5-ethynyl-3-fluoro-2-pyridyl)-5-phenyl-1H-pyrrole-3-sulfonamide] |
| 4.30 to 5.30 | N#Cc1ccc(NS(=O)(=O)c2c[nH]cc2-c2ccc(F)cc2)c(F)c1 [Cpd 217, N-(4-cyano-2-fluoro-phenyl)-4-(4-fluorophenyl)-1H-pyrrole-3-sulfonamide] |
| 5.30 to 6.30 | N#Cc1ccc(NS(=O)(=O)c2c[nH]cc2-c2ccc(Cl)cc2)c(F)c1 [Cpd 218, 4-(4-chlorophenyl)-N-(4-cyano-2-fluoro-phenyl)-1H-pyrrole-3-sulfonamide] |
| 5.30 to 6.30 | Cc1ccc(-c2c[nH]cc2S(=O)(=O)Nc2ccc(C#N)cc2F)cc1 [Cpd 219, N-(4-cyano-2-fluoro-phenyl)-4-(p-tolyl)-1H-pyrrole-3-sulfonamide] |
| 5.30 to 6.30 | COc1cccc(-c2c[nH]cc2S(=O)(=O)Nc2ccc(C#N)cc2F)c1 [Cpd 220, N-(4-cyano-2-fluoro-phenyl)-4-(3-methoxyphenyl)-1H-pyrrole-3-sulfonamide] |
| 5.30 to 6.30 | Cc1cccc(-c2c[nH]cc2S(=O)(=O)Nc2ccc(C#N)cc2F)c1 [Cpd 221, N-(4-cyano-2-fluoro-phenyl)-4-(m-tolyl)-1H-pyrrole-3-sulfonamide] |
| 4.30 to 5.30 | N#Cc1ccc(NS(=O)(=O)c2c[nH]cc2-c2ccccc2Cl)c(F)c1 [Cpd 222, 4-(2-chlorophenyl)-N-(4-cyano-2-fluoro-phenyl)-1H-pyrrole-3-sulfonamide] |
| 4.30 to 5.30 | COc1ccccc1-c1c[nH]cc1S(=O)(=O)Nc1ccc(C#N)cc1F [Cpd 223, N-(4-cyano-2-fluoro-phenyl)-4-(2-methoxyphenyl)-1H-pyrrole-3-sulfonamide] |
| > 6.30 | COc1nccc(F)c1-c1cc(S(=O)(=O)Nc2cc(F)c(C(F)(F)F)cc2F)c[nH]1 [Cpd 224, N-[2,5-difluoro-4-(trifluoromethyl)phenyl]-5-(4-fluoro-2-methoxy-3-pyridyl)-1H-pyrrole-3-sulfonamide] |
| 5.30 to 6.30 | COc1nccc(F)c1-c1cc(S(=O)(=O)Nc2ccc(Cl)cc2F)c[nH]1 [Cpd 227, N-(4-chloro-2-fluoro-phenyl)-5-(4-fluoro-2-methoxy-3-pyridyl)-1H-pyrrole-3-sulfonamide] |
| > 6.30 | N#Cc1ccc(NS(=O)(=O)c2c[nH]cc2-c2cccc(Cl)c2)c(F)c1 [Cpd 228, 4-(3-chlorophenyl)-N-(4-cyano-2-fluoro-phenyl)-1H-pyrrole-3-sulfonamide] |
| 5.30 to 6.30 | N#Cc1ccc(NS(=O)(=O)c2c[nH]cc2-c2ccccn2)c(F)c1 [Cpd 229, N-(4-cyano-2-fluoro-phenyl)-4-(2-pyridyl)-1H-pyrrole-3-sulfonamide] |

From patent US20240299385A1 (ReWind Therapeutics NV, priority 2021, published 2024)
